Assay results taken from patent US5492821A, “Stabilized polyacrylic saccharide protein conjugates” (Cargill, Inc., priority 1991, dated 1996).
Numbered stars: 1 amine (or outer) side, 2 acyl side, 3 side chain; on linkers, the order of the positions; unused ones are H or OH. Peptide text beside a SMILES is read from it. * marks the point of attachment. pNA = O=[N+]([O-])c1ccc(N*)cc1; Suc = O=C(CCC(=O)[*:2])[*:1]

Legend:
Type in all cases: biochemical
Settings in all cases: 0.05M sodium phosphate buffer at pH 8 containing 10% methanol
[1] = test system: CPC-trypsin (poly(2-N-methacrylamido-2-deoxy-D-glucose)-trypsin conjugate); test: Km and kcat of enzyme-polymer conjugate, Table 1
Description: A protein polymer conjugate of poly(2-N-methacrylamido-2-deoxy-D-glucose) and trypsin was prepared by the reductive amination procedure as shown below: [drawing 23] To 20 mL of a 0.05M sodium borate solution at pH 8 was added 148 mg (3×10^-8 mole) of poly(2-N-methacrylamido-2-deoxy-D-glucose) with 30 mg (1.2×10^-6 mole) of trypsin and 10 mg ([…]) of purified sodium cyanoborohydride. The solution was placed in a shaking water bath at 60 oscillations/min at 35° C. for 48 hours. The progress of the reaction was followed by gel filtration chromatography using 0.05M sodium borate as the eluent on Sephacryl S-200 with a flow rate of 1.5 mL/min. Dialysis of the solution using Spectra Por CE 100K MWCO membrane against 2×250 mL of 0.05M sodium borate at pH 8 for 14 hours gave a 42% yield of active stabilized trypsin-polymer conjugate.
(§1) The yield of the active enzyme was determined by comparison of the relative activity of the native trypsin and the trypsin-polymer conjugate for N-succinyl-Ala-Ala-Pro-Phe p-nitroanilide as the substrate in 0.05M sodium phosphate buffer at pH 8 containing 10% methanol.

α-chymotrypsin (native) = α-chymotrypsin (native) (Bos taurus, UniProt P00766); test: Km and kcat of enzyme, Table 1
Description: as §1
The procedure of EXAMPLE 8 (a) (i) was repeated in every essential detail except that α-chymotrypsin was used instead of trypsin.

trypsin (native) = test: Km and kcat of enzyme, Table 1
Description: as §1

`C[C@H](NC(=O)CCC(=O)O)C(=O)N[C@@H](C)C(=O)N1CCC[C@H]1C(=O)N[C@@H](Cc1ccccc1)C(=O)Nc1ccc([N+](=O)[O-])cc1` [N-succinyl-Ala-Ala-Pro-Phe p-nitroanilide] (Suc-AAPF-pNA) was tested, and the Km [1] was 890 µM, the kcat [1] was 1.2 s⁻¹ and the Km (α-chymotrypsin (native)) was 40 µM. For the same molecule, the kcat (α-chymotrypsin (native)) was 33 s⁻¹, the Km (trypsin (native)) was 760 µM and the kcat (trypsin (native)) was 0.9 s⁻¹.
